Some test systems named below: SK-MEL-2 melanoma; OVCAR-4 ovarian; MDA-MB-231 breast; T-47D breast; MDA-MB-435; SR leukemia; HCC-2998 colon; DU-145 prostate; NCI-H23 lung; MDA-N; LOX IMVI melanoma; TK-10 renal; MCF7 breast; SF-539 CNS; ACHN renal; NCI-H522 lung; PC-3 prostate; M14 melanoma; CCRF-CEM leukemia.
Assay in all cases: inhibition of tumour cell growth, NCI panel, 48 h

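Growth conditions: 96-well plates. Treatment: test compound, 48 hours, 5 concentrations. Analysis: linear interpolation between bracketing concentrations; unreached endpoints set to highest concentration. TGI marks complete inhibition of growth.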 Some results are limits rather than exact numbers.

Turning to `Cc1ccc(S(=O)(=O)n2c3c(c4ccccc42)CCN2C(=O)C(S(=O)(=O)c4ccccc4)=CCC32)cc1` (configuration not stated), the TGI came to 0.475 µM in the experiment on SK-MEL-2 melanoma; 0.436 µM in the experiment with OVCAR-4 ovarian; 0.409 µM with MDA-MB-231 breast; 0.375 µM in the experiment on T-47D breast; 0.445 µM with MDA-MB-435; 0.635 µM in the experiment on SR leukemia. For the same compound, the TGI in the experiment on HCC-2998 colon is 0.44 µM; with DU-145 prostate, 0.375 µM; with NCI-H23 lung, 0.335 µM; in the experiment on MDA-N, 0.378 µM; in the experiment with LOX IMVI melanoma, 0.452 µM; in the experiment with TK-10 renal, 0.282 µM. Also, the TGI in the experiment with MCF7 breast is 0.656 µM; in the experiment on SF-539 CNS, 0.391 µM; in the experiment on ACHN renal, 0.393 µM; in the experiment with NCI-H522 lung it was 0.567 µM; in the experiment with PC-3 prostate, 0.562 µM.
For `O=C1CCCC2C(O)CCC[C@H]12` (some centres not stated), the TGI with M14 melanoma, with SK-MEL-2 melanoma, with OVCAR-4 ovarian, in the experiment with MDA-MB-231 breast, in the experiment with T-47D breast and in the experiment on SR leukemia was more than 100 µM each time. The TGI in the experiment on HCC-2998 colon, in the experiment with DU-145 prostate, with CCRF-CEM leukemia, in the experiment on NCI-H23 lung, in the experiment on MDA-N and in the experiment on LOX IMVI melanoma was more than 100 µM throughout. In addition, the TGI in the experiment on TK-10 renal, with MCF7 breast, in the experiment on SF-539 CNS, with ACHN renal, with NCI-H522 lung and in the experiment with PC-3 prostate was more than 100 µM in each case.
Turning to `N#Cc1n[nH]n(C2CCCCC2)c1=O`, the TGI with M14 melanoma, with SK-MEL-2 melanoma, with OVCAR-4 ovarian, with MDA-MB-231 breast, with T-47D breast and in the experiment with MDA-MB-435 was more than 100 µM each time. Moreover, the TGI in the experiment with HCC-2998 colon, with DU-145 prostate, in the experiment with CCRF-CEM leukemia, in the experiment with NCI-H23 lung, in the experiment on MDA-N and with LOX IMVI melanoma was more than 100 µM throughout. Besides, the TGI with TK-10 renal, in the experiment with MCF7 breast, in the experiment with SF-539 CNS, with ACHN renal, with NCI-H522 lung and in the experiment with PC-3 prostate was more than 100 µM throughout.
In the case of `COC(=O)c1cc2c3c(cc(N(C)C)c2[nH]1)N(C(=O)c1cc2cc(OC)c(OC)c(OC)c2[nH]1)CC3CCl` (configuration not stated), the TGI in the experiment with M14 melanoma was 0.00848 µM; in the experiment with SK-MEL-2 melanoma, 0.0659 µM; in the experiment with OVCAR-4 ovarian it was 0.00605 µM; in the experiment with MDA-MB-231 breast it was 0.0132 µM; in the experiment on T-47D breast, 0.642 µM; with MDA-MB-435 it was less than 0.0025 µM. In addition, the TGI in the experiment on HCC-2998 colon is 0.0144 µM; with DU-145 prostate, less than 0.0025 µM; in the experiment on CCRF-CEM leukemia it was 0.0538 µM; in the experiment on MDA-N, less than 0.0025 µM; in the experiment with MCF7 breast, 2.42 µM; in the experiment on NCI-H522 lung, 0.0113 µM. This compound also yielded a TGI with PC-3 prostate of 25 µM.
Consider `O=C(N/N=C(/COc1ccc(Cl)cc1)N=Cc1cccnc1)c1ccncc1`, for which the TGI in the experiment on M14 melanoma, with SK-MEL-2 melanoma, with OVCAR-4 ovarian, in the experiment with MDA-MB-231 breast, in the experiment on T-47D breast and with MDA-MB-435 was more than 100 µM in each case. Further, the TGI in the experiment with HCC-2998 colon was more than 100 µM; with DU-145 prostate it was more than 100 µM; with CCRF-CEM leukemia, more than 100 µM; in the experiment with NCI-H23 lung it was more than 100 µM; with MDA-N, 65.8 µM; with LOX IMVI melanoma, more than 100 µM. Besides, the TGI was more than 100 µM in the experiment with TK-10 renal; more than 100 µM in the experiment on MCF7 breast; more than 100 µM with SF-539 CNS; more than 100 µM in the experiment on ACHN renal; 66.7 µM in the experiment with NCI-H522 lung; more than 100 µM with PC-3 prostate.
Take `COc1ccc(N(CN2C(=O)CCC2C(=O)O)C(C)=O)cc1` (configuration not stated): the TGI with M14 melanoma, with SK-MEL-2 melanoma, in the experiment with OVCAR-4 ovarian, with MDA-MB-231 breast, in the experiment on T-47D breast and with MDA-MB-435 was more than 100 µM in each case. The TGI in the experiment on HCC-2998 colon, in the experiment on DU-145 prostate, in the experiment on CCRF-CEM leukemia, with NCI-H23 lung, with MDA-N and in the experiment on LOX IMVI melanoma was more than 100 µM throughout. Also, the TGI in the experiment on TK-10 renal, in the experiment on MCF7 breast, with SF-539 CNS, with ACHN renal, in the experiment with NCI-H522 lung and in the experiment on PC-3 prostate was more than 100 µM each time.
For `COCO[C@@H]1C[C@H]2C(=O)N(COC)c3ccccc3C(=O)N2C1`, the TGI in the experiment on M14 melanoma, in the experiment on SK-MEL-2 melanoma, in the experiment on OVCAR-4 ovarian, with MDA-MB-231 breast, in the experiment with T-47D breast and in the experiment on MDA-MB-435 was more than 100 µM throughout. Also, the TGI in the experiment on DU-145 prostate, in the experiment on CCRF-CEM leukemia, with NCI-H23 lung, with MDA-N, in the experiment on LOX IMVI melanoma and with TK-10 renal was more than 100 µM throughout. Moreover, the TGI in the experiment with MCF7 breast, in the experiment on SF-539 CNS, with ACHN renal, in the experiment with NCI-H522 lung and with PC-3 prostate was more than 100 µM throughout.
Take `O=c1[nH]cnc2c1sc1nc3ccccc3n12`: the TGI with M14 melanoma, with SK-MEL-2 melanoma, with OVCAR-4 ovarian, with MDA-MB-231 breast, with T-47D breast and in the experiment on MDA-MB-435 was more than 100 µM in each case. The TGI in the experiment on HCC-2998 colon, with DU-145 prostate, with CCRF-CEM leukemia, with NCI-H23 lung, in the experiment on MDA-N and in the experiment with LOX IMVI melanoma was more than 100 µM each time. The TGI in the experiment on TK-10 renal, in the experiment on MCF7 breast, in the experiment on SF-539 CNS, in the experiment with ACHN renal, in the experiment on NCI-H522 lung and with PC-3 prostate was more than 100 µM each time.

The values are drawn from PubChem BioAssay (NCI).
